According to patent US11446287B2, “Compounds and methods for EP300 or CBP modulation and indications therefor” (Opna Immuno-Oncology SA, priority 2019, dated 2022):
pIC50: −log10 of the molar value.

Molecular target: T1, Recombinant human EP300 containing the bromodomain (EP300-BD (1040-1161)) (Homo sapiens, UniProt Q09472)
T1 construct: Recombinant human EP300 bromodomain (EP300-BD (1040-1161)); made in house; host or cells: E. coli BL21-CodonPlus (DE3), modified pET vector
T1 sequence (Q09472 1040-1161): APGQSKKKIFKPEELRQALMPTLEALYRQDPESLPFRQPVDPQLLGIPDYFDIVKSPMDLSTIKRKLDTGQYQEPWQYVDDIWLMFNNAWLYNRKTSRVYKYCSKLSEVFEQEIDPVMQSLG
Test: EP300 Alphascreen binding assay
Method in brief: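 Displacement of a biotinylated acetyl-K56 histone H3 peptide from the N-His bromodomain construct (1040-1161) measured by AlphaScreen proximity, beads at 7.5 μg/ml final, read 60 min after addition. Protein, peptide and compound first incubated 1 h at room temperature, pH 7.5 HEPES buffer; IC50 by four-parameter logistic fit.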

Cc1noc(C)c1-c1cnc2c(c1)c(-c1ccc(C(=O)O)cc1)cn2[C@@H](C)c1ccccn1 [P-0001, (S)-4-(5-(3,5-dimethylisoxazol-4-yl)-1-(1-(pyridin-2-yl)ethyl)-1H-pyrrolo[2,3-b]pyridin-3-yl)benzoic acid] and Cc1noc(C)c1-c1cnc2c(c1)c(-c1ccc(C(=O)O)cc1)cn2C(c1ccccn1)C1CCCC1 (stereo not shown) [P-0002, 4-(1-(cyclopentyl(pyridin-2-yl)methyl)-5-(3,5-dimethylisoxazol-4-yl)-1H-pyrrolo[2,3-b]pyridin-3-yl)benzoic acid] fall in the same range of pIC50: 6.00 to 10.00 for the first, 6.00 to 10.00 for the second.

First: Cc1noc(C)c1-c1cnc2c(c1)c(-c1ccccc1)cn2C(c1ccccn1)C1CCCC1 (stereo not shown) [P-0003, 4-(1-(cyclopentyl(pyridin-2-yl)methyl)-3-phenyl-1H-pyrrolo[2,3-b]pyridin-5-yl)-3,5-dimethylisoxazole]
Second: Cc1noc(C)c1-c1cnc2c(c1)c(-c1ccc(C(=O)O)cc1)cn2C(c1ccccn1)C1CCCCC1 (stereo not shown) [P-0004, 4-(1-(cyclohexyl(pyridin-2-yl)methyl)-5-(3,5-dimethylisoxazol-4-yl)-1H-pyrrolo[2,3-b]pyridin-3-yl)benzoic acid]
The pIC50 of the first is lower: 3.00 to 5.10 for the first, 6.00 to 10.00 for the second. The second is the more potent here.

Compared with COC(=O)c1ccc(-c2cn(S(=O)(=O)c3ccc(C)cc3)c3ncc(-c4c(C)noc4C)cc23)cc1 [P-0005, methyl 4-(5-(3,5-dimethylisoxazol-4-yl)-1-tosyl-1H-pyrrolo[2,3-b]pyridin-3-yl)benzoate], Cc1noc(C)c1-c1cnc2c(c1)c(-c1ccnc(C(=O)O)c1)cn2S(=O)(=O)c1ccccc1 [P-0055, 4-(5-(3,5-dimethylisoxazol-4-yl)-1-(phenylsulfonyl)-1H-pyrrolo[2,3-b]pyridin-3-yl)picolinic acid] is higher in pIC50: 3.00 to 5.10 for the first, 6.00 to 10.00 for the second.

COc1cccc(Cn2cc(-c3cccc(C(=O)O)c3)c3cc(-c4c(C)noc4C)cnc32)c1 [P-0056, 3-(5-(3,5-dimethylisoxazol-4-yl)-1-(3-methoxybenzyl)-1H-pyrrolo[2,3-]pyridin-3-yl)benzoic acid] and Cc1cccc(Cn2cc(-c3cccc(C(=O)O)c3)c3cc(-c4c(C)noc4C)cnc32)c1 [P-0062, 3-(5-(3,5-dimethylisoxazol-4-yl)-1-(3-methylbenzyl)-1H-pyrrolo[2,3-b]pyridin-3-yl)benzoic acid] fall in the same range of pIC50: 6.00 to 10.00 for the first, 6.00 to 10.00 for the second.

COc1cccc(Cn2cc(-c3ccnc(C(=O)O)c3)c3cc(-c4c(C)noc4C)cnc32)c1 [P-0057, 4-(5-(3,5-dimethylisoxazol-4-yl)-1-(3-methoxybenzyl)-1H-pyrrolo[2,3-b]pyridin-3-yl)picolinic acid] and Cc1noc(C)c1-c1cnc2c(c1)c(-c1cccc(C(=O)O)c1)cn2Cc1cccc(F)c1 [P-0060, 3-(5-(3,5-dimethylisoxazol-4-yl)-1-(3-fluorobenzyl)-1H-pyrrolo[2,3-b]pyridin-3-yl)benzoic acid] fall in the same range of pIC50: 6.00 to 10.00 for the first, 6.00 to 10.00 for the second.

Cc1noc(C)c1-c1cnc2c(c1)c(-c1cccc(C(=O)O)c1)cn2C(C1CC1)C1CC1 [P-0058, 3-(1-(dicyclopropylmethyl)-5-(3,5-dimethylisoxazol-4-yl)-1H-pyrrolo[2,3-b]pyridin-3-yl)benzoic acid] and Cc1noc(C)c1-c1cnc2c(c1)c(-c1cccc(C(=O)O)c1)cn2C(C1CCC1)C1CCC1 [P-0072, 3-(1-(dicyclobutylmethyl)-5-(3,5-dimethylisoxazol-4-yl)-1H-pyrrolo[2,3-b]pyridin-3-yl)benzoic acid] fall in the same range of pIC50: 6.00 to 10.00 for the first, 6.00 to 10.00 for the second.

Cc1noc(C)c1-c1cnc2c(c1)c(-c1cccc(C(=O)O)c1)cn2Cc1cccc(OC(F)(F)F)c1 [P-0059, 3-(5-(3,5-dimethylisoxazol-4-yl)-1-(3-(trifluoromethoxy)benzyl)-1H-pyrrolo[2,3-b]pyridin-3-yl)benzoic acid] and Cc1noc(C)c1-c1cnc2c(c1)c(-c1cccc(C(=O)O)c1)cn2Cc1cccc(C(F)(F)F)c1 [P-0063, 3-(5-(3,5-dimethylisoxazol-4-yl)-1-(3-(trifluoromethyl)benzyl)-1H-pyrrolo[2,3-b]pyridin-3-yl)benzoic acid] fall in the same range of pIC50: 6.00 to 10.00 for the first, 6.00 to 10.00 for the second.

Cc1noc(C)c1-c1cnc2c(c1)c(-c1cccc(C(=O)O)c1)cn2Cc1cccc(Cl)c1 [P-0061, 3-(1-(3-chlorobenzyl)-5-(3,5-dimethylisoxazol-4-yl)-1H-pyrrolo[2,3-b]pyridin-3-yl)benzoic acid] and Cc1noc(C)c1-c1cnc2c(c1)c(-c1cccc(C(=O)O)c1)cn2C(c1ccccn1)C1CCC1 (stereo not shown) [P-0073, 3-(1-(cyclobutyl(pyridin-2-yl)methyl)-5-(3,5-dimethylisoxazol-4-yl)-1H-pyrrolo[2,3-b]pyridin-3-yl)benzoic acid] fall in the same range of pIC50: 6.00 to 10.00 for the first, 6.00 to 10.00 for the second.

Cc1noc(C)c1-c1cnc2c(CC3CCC3)cn(-c3ccc(C(=O)O)cc3OC(F)F)c2c1 [P-0064, 4-(3-(cyclobutylmethyl)-6-(3,5-dimethylisoxazol-4-yl)-1H-pyrrolo[3,2-b]pyridin-1-yl)-3-(difluoromethoxy)benzoic acid] and Cc1noc(C)c1-c1cnc2c(CC3CCC3)cn(-c3ccc(C(=O)O)cc3OC(F)(F)F)c2c1 [P-0066, 4-(3-(cyclobutylmethyl)-6-(3,5-dimethylisoxazol-4-yl)-1H-pyrrolo[3,2-b]pyridin-1-yl)-3-(trifluoromethoxy)benzoic acid] fall in the same range of pIC50: 6.00 to 10.00 for the first, 6.00 to 10.00 for the second.

Cc1noc(C)c1-c1cnc2c(CC3CC3)cn(-c3ccnc(C(=O)O)c3)c2c1 [P-0065, 4-(3-(cyclopropylmethyl)-6-(3,5-dimethylisoxazol-4-yl)-1H-pyrrolo[3,2-b]pyridin-1-yl)picolinic acid] and Cc1noc(C)c1-c1cnc2c(CC3CCC3)cn(-c3c(Cl)cc(C(=O)O)cc3Cl)c2c1 [P-0074, 3,5-dichloro-4-(3-(cyclobutylmethyl)-6-(3,5-dimethylisoxazol-4-yl)-1H-pyrrolo[3,2-b]pyridin-1-yl)benzoic acid] fall in the same range of pIC50: 6.00 to 10.00 for the first, 6.00 to 10.00 for the second.

COc1cc(C(=O)O)cc(OC)c1-n1cc(CC2CCC2)c2ncc(-c3c(C)noc3C)cc21 [P-0067, 4-(3-(cyclobutylmethyl)-6-(3,5-dimethylisoxazol-4-yl)-1H-pyrrolo[3,2-b]pyridin-1-yl)-3,5-dimethoxybenzoic acid] and Cc1noc(C)c1-c1cnc2c(CC3CCC3)cn(-c3ccc(S(C)(=O)=O)c(F)c3)c2c1 [P-0068, 4-(3-(cyclobutylmethyl)-1-(3-fluoro-4-(methylsulfonyl)phenyl)-1H-pyrrolo[3,2-b]pyridin-6-yl)-3,5-dimethylisoxazole] fall in the same range of pIC50: 6.00 to 10.00 for the first, 6.00 to 10.00 for the second.

Cc1noc(C)c1-c1cnc2c(c1)c(C#CC(=O)O)cn2Cc1ccccc1 [P-0069, 3-(1-benzyl-5-(3,5-dimethylisoxazol-4-yl)-1H-pyrrolo[2,3-b]pyridin-3-yl)propiolic acid] and Cc1noc(C)c1-c1cnc2c(c1)c(-c1ccc(C(=O)O)cc1OC(F)F)cn2[C@@H](C)c1ccccn1 [P-0071, (S)-3-(difluoromethoxy)-4-(5-(3,5-dimethylisoxazol-4-yl)-1-(1-(pyridin-2-yl)ethyl)-1H-pyrrolo[2,3-b]pyridin-3-yl)benzoic acid] fall in the same range of pIC50: 6.00 to 10.00 for the first, 6.00 to 10.00 for the second.

Work on Cc1noc(C)c1-c1cnc2c(c1)c(-c1ccc(C(=O)O)cc1OC(F)(F)F)cn2[C@@H](C)c1ccccn1 [P-0070, (S)-4-(5-(3,5-dimethylisoxazol-4-yl)-1-(1-(pyridin-2-yl)ethyl)-1H-pyrrolo[2,3-b]pyridin-3-yl)-3-(trifluoromethoxy)benzoic acid] yielded a pIC50 of 6.00 to 10.00.
